Assay results from ChEMBL document CHEMBL3885881, “DrugMatrix”.

Species: Rattus norvegicus
Assay: DrugMatrix - Regimen: Daily Repeat
Assay type: toxicity, organism-based, Sprague-Dawley
Parameters: regimen Daily Repeat, gender Male, age 6-8 weeks
Settings: in vivo, po, route oral GAVAGE, vehicle .5 % CMC; for BASOPHIL / EOSINOPHIL / ERYTHROCYTE COUNT / HEMATOCRIT / HEMOGLOBIN / LEUKOCYTE COUNT / LYMPHOCYTE / MEAN CORPUSCULAR HEMOGLOBIN / MEAN CORPUSCULAR HEMOGLOBIN CONCENTRATION / MEAN CORPUSCULAR VOLUME / MONOCYTE / NEUTROPHIL / PLATELET COUNT: tissue Blood; for ALANINE AMINOTRANSFERASE / ALBUMIN / ALKALINE PHOSPHATASE / ASPARTATE AMINOTRANSFERASE / BLOOD UREA NITROGEN / CHLORIDE / CHOLESTEROL / CREATINE PHOSPHOKINASE / CREATININE / GLUCOSE / PHOSPHORUS / POTASSIUM / SODIUM / TOTAL BILIRUBIN / TOTAL PROTEIN: tissue Plasma
[1] = 0 mg/kg, 72 h, dose level Control, time 3 day
[2] = 0 mg/kg, 120 h, dose level Control, time 5 day
[3] = 0.09 mg/kg, 72 h, dose level Low, time 3 day

## CCN1C[C@]2(COC)[C@H](O)C[C@H](OC)[C@@]34[C@@H]5C[C@@]6(O)[C@H](OC(=O)c7ccccc7)[C@@H]5[C@@](OC(C)=O)([C@@H]([C@H](OC)[C@H]23)[C@@H]14)[C@@H](O)[C@@H]6OC [ACONITINE]
[1]
  BASOPHIL: 0.68%
  EOSINOPHIL: 0.46%
  ERYTHROCYTE COUNT: 7.15 x10E6/uL
  HEMATOCRIT: 45.44%
  HEMOGLOBIN: 14.1 G/DL
  LEUKOCYTE COUNT: 9.78 x10E3/uL
  LYMPHOCYTE: 84.44%
  MEAN CORPUSCULAR HEMOGLOBIN: 19.72 pg
  MEAN CORPUSCULAR HEMOGLOBIN CONCENTRATION: 31 G/DL
  MEAN CORPUSCULAR VOLUME: 63.66 fL
  MONOCYTE: 2.14%
  NEUTROPHIL: 11.16%
  PLATELET COUNT: 1378.2 x10E3/uL
  ALANINE AMINOTRANSFERASE: 42.33 u/L
  ALBUMIN: 3.8 G/DL
  ALKALINE PHOSPHATASE: 388.17 u/L
  ASPARTATE AMINOTRANSFERASE: 68 u/L
  BLOOD UREA NITROGEN: 16.17 mg/dL
  CHLORIDE: 96.67 MEQ/L
  CHOLESTEROL: 71 mg/dL
  CREATINE PHOSPHOKINASE: 156.17 u/L
  CREATININE: 0.57 mg/dL
  GLUCOSE: 193.67 mg/dL
  PHOSPHORUS: 11.43 mg/dL
  POTASSIUM: 7 MEQ/L
  SODIUM: 140.33 MEQ/L
  TOTAL BILIRUBIN: 0.48 mg/dL
  TOTAL PROTEIN: 6.8 G/DL
[2]
  BASOPHIL: 1.47%
  EOSINOPHIL: 1%
  ERYTHROCYTE COUNT: 7.12 x10E6/uL
  HEMATOCRIT: 45.47%
  HEMOGLOBIN: 14.1 G/DL
  LEUKOCYTE COUNT: 11.38 x10E3/uL
  LYMPHOCYTE: 82.57%
  MEAN CORPUSCULAR HEMOGLOBIN: 19.82 pg
  MEAN CORPUSCULAR HEMOGLOBIN CONCENTRATION: 31.02 G/DL
  MEAN CORPUSCULAR VOLUME: 63.88 fL
  MONOCYTE: 2.2%
  NEUTROPHIL: 11.97%
  PLATELET COUNT: 1267 x10E3/uL
  ALANINE AMINOTRANSFERASE: 38 u/L
  ALBUMIN: 3.72 G/DL
  ALKALINE PHOSPHATASE: 391 u/L
  ASPARTATE AMINOTRANSFERASE: 65.83 u/L
  BLOOD UREA NITROGEN: 14.17 mg/dL
  CHLORIDE: 107.67 MEQ/L
  CHOLESTEROL: 61 mg/dL
  CREATINE PHOSPHOKINASE: 148.33 u/L
  CREATININE: 0.57 mg/dL
  GLUCOSE: 177.17 mg/dL
  PHOSPHORUS: 12.07 mg/dL
  POTASSIUM: 7.2 MEQ/L
  SODIUM: 151.5 MEQ/L
  TOTAL BILIRUBIN: 0.58 mg/dL
  TOTAL PROTEIN: 6.72 G/DL
[3]
  BASOPHIL: 0.43%
  EOSINOPHIL: 0.4%
  ERYTHROCYTE COUNT: 7.13 x10E6/uL
  HEMATOCRIT: 45.67%
  HEMOGLOBIN: 14.3 G/DL
  LEUKOCYTE COUNT: 11.21 x10E3/uL
  LYMPHOCYTE: 84.83%
  MEAN CORPUSCULAR HEMOGLOBIN: 20.07 pg
  MEAN CORPUSCULAR HEMOGLOBIN CONCENTRATION: 31.3 G/DL
  MEAN CORPUSCULAR VOLUME: 64.07 fL
  MONOCYTE: 2.23%
  NEUTROPHIL: 11.1%
  PLATELET COUNT: 1445.33 x10E3/uL
  ALANINE AMINOTRANSFERASE: 31.33 u/L
  ALBUMIN: 3.93 G/DL
  ALKALINE PHOSPHATASE: 342 u/L
  ASPARTATE AMINOTRANSFERASE: 61.33 u/L
  BLOOD UREA NITROGEN: 14.33 mg/dL
  CHLORIDE: 96.67 MEQ/L
  CHOLESTEROL: 69.33 mg/dL
  CREATINE PHOSPHOKINASE: 136.67 u/L
  CREATININE: 0.57 mg/dL
  GLUCOSE: 209 mg/dL
  PHOSPHORUS: 12.67 mg/dL
  POTASSIUM: 6.4 MEQ/L
  SODIUM: 140.67 MEQ/L
  TOTAL BILIRUBIN: 0.4 mg/dL
  TOTAL PROTEIN: 7.1 G/DL
